# From patent US20200197409A1, “HEPATITIS B VIRUS SURFACE ANTIGEN INHIBITOR” (FUJIAN COSUNTER PHARMACEUTICAL CO., LTD., priority 2017, published 2020)
# Read-outs that look alike come from different tables or passages of the source.
# Columns and labels:
# [1] = Single-dose pharmacokinetic study on rat; assay type: in vivo, SD rats
# HBsAg = conditions: read-out: HBsAg EC50; HepG2.2.15 cells, supernatant on the 8th day
# Experimental: The HBV DNA content in HepG2.2.15 cells culture supernatant was determined by real-time quantitative qPCR assay (real time-qPCR), and the HBV surface antigen content was determined by enzyme linked immunosorbent assay (ELISA). The inhibitory effect of the compound on HBV was evaluated by the EC50 value of the compound.
# 2.1 Cell Line: HepG2.2.15 Cells
# 3.1 HepG2.2.15 cells (4×10^4 cells/well) were seeded into a 96-well plate and incubated overnight at 37° C. under 5% CO2.
# 3.2 On the 2nd day, the compound was diluted into 8 concentrations with 3-fold gradient. The compounds with different concentrations were added into the culture wells in duplicate wells. The final concentration of DMSO in the culture medium was 0.5%, 10 μM ETV was used as a 100%/inhibition control, and 0.5% DMSO was used as a 0% inhibition control.
# 3.3 On the 5th day, the culture medium was replaced with a fresh medium containing the compound.
# 3.4 On the 8th day, the culture medium in the culture well was collected, and a part of the sample was taken for ELISA to determine the content of hepatitis B virus S antigen, a part of the sample was taken to extract DNA with a high-throughput DNA purification kit (Qiagen-51162).
# 3.8 Determination of hepatitis B virus S antigen content by ELISA
# 50 μL of sample and standard sample were taken and added into a reaction plate respectively, followed by addition of 50 μL of enzyme conjugate into each well, the mixture was shaken and well-mixed, and placed in a bath at 37° C. for 60 minutes. The plate was then washed with washing solution 5 times, followed by addition of 50 μL of illuminating substrate into each well, the mixture was well-mixed and allowed to react at room temperature for 10 minutes in the dark. Chemiluminescence intensity was determined by a ELISA.
# Calculation of the percentage of inhibition:% Inh.=(1−value of sample/value of DMSO control)×100
# Calculation of EC50: The 50% inhibitory concentration (EC50) value of the compound on HBV was calculated by GraphPad Prism software.
# [2] = Plasma protein binding rate, human plasma; assay type: in vitro ADME; conditions: plasma of human, dialysis 4 hours at 37° C.
# Experimental: The protein binding rate of Embodiment 6 in the plasma of human, CD-1 mouse and SD rat was determined, 796 μL of blank plasma was taken from human, CD-1 mice and SD rats, and 4 μL of test compound working solution (400 μM) or warfarin working solution (400 μM) was added to achieve a final concentration of the test compound and the warfarin in plasma samples of 2 μM. The samples were mixed thoroughly. The final concentration of organic phase DMSO was 0.5%, 50 μL of the test compound and warfarin plasma sample were transferred into sample receiving plates (three parallels), and a relative volume of corresponding blank plasma or buffer was immediately added, ensuring that the final volume of each sample well was 100 μL, and the volume ratio of plasma to dialysis buffer was 1:1. 400 μL of stop solution was added to these samples, which was used as a T0 sample for the determination of recovery and stability. […] The protein binding rate and the recovery rate were calculated by the formulas: % Protein unbinding rate (%)=100*Drug concentration through the dialysis membrane/drug concentration not through the dialysate: Protein binding rate (%)=100-% protein unbinding rate: % Recovery=100*(Drug concentration through the dialysis membrane+Drug concentration not through the dialysate)/Total drug concentration before undialysis. Protein binding rate and recovery rate were calculated.
# [3] = Microsomal metabolism stability, human; assay type: in vitro ADME; conditions: human liver microsomes 0.5 mg/mL, 1 μM, NADPH, 37° C.
# Experimental: The microsomal metabolism stability of the test compound (Embodiment 6) in three species was determined. 1 μM test compound and microsomes (0.5 mg/mL) supplemented with NADPH regeneration system were incubated at 37° C. The positive controls were testosterone (3A4 substrate), propafenone (2D6 substrate) and diclofenac (2C9 substrate), respectively. The positive control and microsomes (0.5 mg/mL) supplemented with NADPH regeneration system were incubated at 37° C. Samples at different time points (0, 5, 10, 20, 30, and 60 minutes) were mixed directly with cold acetonitrile containing an internal standard to terminate the reaction. The compound and microsomes were incubated for 60 minutes without the NADPH regeneration system. One parallel was set at each time point (n=1). The samples were analyzed by LC/MS/MS. The concentration of the compound was indicated by the ratio of the peak area of the analyte to the peak area of the internal standard.
smiles,measurement,setting,value
COCCCOc1cc2c(cc1OC)-c1cc(=O)c(C(=O)O)cn1[C@H](C(C)(C)C)CO2 [Embodiment 6],Apparent distribution volume,[1]; IV: 1 mg/kg PO: 2 mg/kg,1.72 L/kg
same,Bioavailability,[1]; IV: 1 mg/kg PO: 2 mg/kg,71.1%
same,Highest concentration,[1]; IV: 1 mg/kg PO: 2 mg/kg,659 nM
same,half-life,"[1]; male, SD, plasma, IV: 1 mg/kg PO: 2 mg/kg",1.98 h
same,clearance,"[1]; male, SD, plasma, IV: 1 mg/kg PO: 2 mg/kg, read-out: Clearance rate",28.1 mL/min/kg
same,AUC(0-t),"[1]; male, SD, plasma, IV: 1 mg/kg, read-out: AUC0-last (Intravenous injection)",1.36 µM·h
same,AUC(0-t),"[1]; male, SD, plasma, PO: 2 mg/kg, read-out: AUC0-last (Oral)",1.83 µM·h
same,EC50,HBsAg,3.88 nM
same,"fraction unbound at 4 h, 2 μM",[2],0.443
same,remaining ratio at T=60 min,[3],109.1%
